{"source": "the supplement of paper PMC10307832", "test_in_all_cases": "relative viability (nuclei count vs DMSO), 5 days (fraction); higher = more cells survive", "key": {"CUDC-101 + Crizotinib": {"compound": "C#Cc1cccc(Nc2ncnc3cc(OC)c(OCCCCCCC(=O)NO)cc23)c1 [CUDC-101] + C[C@@H](Oc1cc(-c2cnn(C3CCNCC3)c2)cnc1N)c1c(Cl)ccc(F)c1Cl [Crizotinib] (partner 1 µM)", "how_it_was_run": "(§1)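 Medians of duplicate plates are given as relative viability. That measure is the nuclei count in treated wells divided by the count in vehicle wells. Counts were taken on 4× images of lung cancer cell lines in 1536-well plates, 5 days after pin-tool dosing the day after seeding with one drug alone or a fixed anchor-drug dose plus five library-drug doses (not always all listed) in √10 steps.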"}, "[1]": {"compound": "C1=CC=C2C(=C1)N=C(S2)C(C#N)C3=NC(=NC=C3)NCCC4=CN=CC=C4 + CC1(C)CCC(c2ccc(Cl)cc2)=C(CN2CCN(c3ccc(C(=O)NS(=O)(=O)c4ccc(N[C@H](CCN5CCOCC5)CSc5ccccc5)c(S(=O)(=O)C(F)(F)F)c4)cc3)CC2)C1 [Navitoclax] (partner 0.5 µM)", "how_it_was_run": "as §1"}, "[2]": {"compound": "C1=CC=C2C(=C1)N=C(S2)C(C#N)C3=NC(=NC=C3)NCCC4=CN=CC=C4 + Cc1cc(Nc2cc(N3CCN(C)CC3)nc(Sc3ccc(NC(=O)C4CC4)cc3)n2)n[nH]1 [Tozasertib] (partner 0.1 µM)", "how_it_was_run": "as §1"}, "NVP-TAE684 + Trametinib": {"compound": "COc1cc(N2CCC(N3CCN(C)CC3)CC2)ccc1Nc1ncc(Cl)c(Nc2ccccc2S(=O)(=O)C(C)C)n1 [NVP-TAE684] + CC(=O)Nc1cccc(-n2c(=O)n(C3CC3)c(=O)c3c(Nc4ccc(I)cc4F)n(C)c(=O)c(C)c32)c1 [Trametinib] (partner 0.02 µM)", "how_it_was_run": "as §1"}}}
{"cell line": "UMC-11", "values": [{"measurement": "relative viability", "setting": "CUDC-101 + Crizotinib; first compound 0.01 µM", "value": 0.67}, {"measurement": "relative viability", "setting": "CUDC-101 + Crizotinib; first compound 0.03162 µM", "value": 0.577}, {"measurement": "relative viability", "setting": "CUDC-101 + Crizotinib; first compound 0.1 µM", "value": 0.404}, {"measurement": "relative viability", "setting": "CUDC-101 + Crizotinib; first compound 0.3162 µM", "value": 0.215}, {"measurement": "relative viability", "setting": "CUDC-101 + Crizotinib; first compound 1 µM", "value": 0.136}, {"measurement": "relative viability", "setting": "[1]; first compound 0.005 µM", "value": 0.28}, {"measurement": "relative viability", "setting": "[1]; first compound 0.01581 µM", "value": 0.304}, {"measurement": "relative viability", "setting": "[1]; first compound 0.05 µM", "value": 0.294}, {"measurement": "relative viability", "setting": "[1]; first compound 0.1581 µM", "value": 0.307}, {"measurement": "relative viability", "setting": "[1]; first compound 0.5 µM", "value": 0.306}, {"measurement": "relative viability", "setting": "[2]; first compound 0.005 µM", "value": 0.212}, {"measurement": "relative viability", "setting": "[2]; first compound 0.01581 µM", "value": 0.214}, {"measurement": "relative viability", "setting": "[2]; first compound 0.05 µM", "value": 0.177}, {"measurement": "relative viability", "setting": "[2]; first compound 0.1581 µM", "value": 0.249}, {"measurement": "relative viability", "setting": "[2]; first compound 0.5 µM", "value": 0.206}, {"measurement": "relative viability", "setting": "NVP-TAE684 + Trametinib; first compound 0.2 µM", "value": 0.701}, {"measurement": "relative viability", "setting": "NVP-TAE684 + Trametinib; first compound 0.6325 µM", "value": 0.636}, {"measurement": "relative viability", "setting": "NVP-TAE684 + Trametinib; first compound 2 µM", "value": 0.434}]}
